From US20170050957A1, “4-AMINO-6-(HETEROCYCLIC)PICOLINATES AND 6-AMINO-2-(HETEROCYCLIC)PYRIMIDINE-4-CARBOXYLATES AND THEIR USE AS HERBICIDES” (Dow AgroSciences LLC, priority 2013, published 2017)
Read-outs that look alike come from different tables or passages of the source.

Columns and labels:
[1] = tested on: Key Broadleaf Weed and Crop Species; test: Post-emergent Test II herbicidal activity (Table 15); format: in vivo; conditions: post-emergence, 336 h, 14 d; for pest or weed control at 35 g/ha: 35 g ai/ha; for pest or weed control at 70 g/ha: 70 g ai/ha; for pest or weed control at 140 g/ha: 140 g ai/ha
Method in brief: (§1)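 Visual injury rating (0 = none, 100 = complete kill) taken 14 d after treatment, relative to untreated plants. Compounds in acetone/DMSO with crop oil concentrate and Triton X-155 were track-sprayed at 187 L/ha onto seedlings at the first-second true leaf stage.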

[2] = tested on: Key Grass and Sedge Weeds as well as Grass Crops; test: Post-emergent Test II herbicidal activity (Table 16); format: in vivo; conditions: post-emergence, 336 h, 14 d; for pest or weed control at 35 g/ha: 35 g ai/ha; for pest or weed control at 70 g/ha: 70 g ai/ha; for pest or weed control at 140 g/ha: 140 g ai/ha
Method in brief: as §1

[3] = Abutilon theophrasti, velvetleaf (Abutilon theophrasti), read-out: Visual Growth Reduction (%) 14 Days After Application, ABUTH
[4] = Amaranthus retroflexus, redroot pigweed (Amaranthus retroflexus), read-out: Visual Growth Reduction (%) 14 Days After Application, AMARE
[5] = Brassica napus, oilseed rape, canola (Brassica napus), read-out: Visual Growth Reduction (%) 14 Days After Application, BRSNN
[6] = Chenopodium album, lambsquarters (Chenopodium album), read-out: Visual Growth Reduction (%) 14 Days After Application, CHEAL
[7] = Euphorbia heterophylla, wild poinsettia (Euphorbia heterophylla), read-out: Visual Growth Reduction (%) 14 Days After Application, EPHHL
[8] = Helianthus annuus, sunflower (Helianthus annuus), read-out: Visual Growth Reduction (%) 14 Days After Application, HELAN
[9] = Cyperus esculentus, yellow nutsedge (Cyperus esculentus), read-out: Visual Growth Reduction (%) 14 Days After Application, CYPES
[10] = Echinochloa crus-galli, barnyardgrass (Echinochloa crus-galli), read-out: Visual Growth Reduction (%) 14 Days After Application, ECHCG
[11] = Oryza sativa, rice (Oryza sativa), read-out: Visual Growth Reduction (%) 14 Days After Application, ORYSA
[12] = Setaria faberi, giant foxtail (Setaria faberi), read-out: Visual Growth Reduction (%) 14 Days After Application, SETFA
[13] = Triticum aestivum, wheat, spring (Triticum aestivum), read-out: Visual Growth Reduction (%) 14 Days After Application, TRZAS
[14] = Zea mays, maize, corn (Zea mays), read-out: Visual Growth Reduction (%) 14 Days After Application, ZEAMX

| Structure (SMILES) | pest or weed control at 35 g/ha [1, 3] [%] | pest or weed control at 70 g/ha [1, 3] [%] | pest or weed control at 140 g/ha [1, 3] [%] | pest or weed control at 35 g/ha [1, 4] [%] | pest or weed control at 70 g/ha [1, 4] [%] | pest or weed control at 140 g/ha [1, 4] [%] | pest or weed control at 35 g/ha [1, 5] [%] | pest or weed control at 70 g/ha [1, 5] [%] | pest or weed control at 140 g/ha [1, 5] [%] | pest or weed control at 35 g/ha [1, 6] [%] | pest or weed control at 70 g/ha [1, 6] [%] | pest or weed control at 140 g/ha [1, 6] [%] | pest or weed control at 35 g/ha [1, 7] [%] | pest or weed control at 70 g/ha [1, 7] [%] | pest or weed control at 140 g/ha [1, 7] [%] | pest or weed control at 35 g/ha [1, 8] [%] | pest or weed control at 70 g/ha [1, 8] [%] | pest or weed control at 140 g/ha [1, 8] [%] | pest or weed control at 35 g/ha [2, 9] [%] | pest or weed control at 70 g/ha [2, 9] [%] | also measured |
| --- | --- | --- | --- | --- | --- | --- | --- | --- | --- | --- | --- | --- | --- | --- | --- | --- | --- | --- | --- | --- | --- |
| COC(=O)c1nc(-c2ccc3cc[nH]c3c2F)cc(N)c1Cl [Compound 1.23, Methyl 4-amino-3-chloro-6-(7-fluoro-1H-indol-6-yl)picolinate] | 95 to 100 | 95 to 100 | 95 to 100 | 95 to 100 | 95 to 100 | 95 to 100 | 60 to 74 | 75 to 84 | 85 to 94 | 95 to 100 | 95 to 100 | 95 to 100 | 95 to 100 | 95 to 100 | 95 to 100 | 60 to 74 | 75 to 84 | 85 to 94 | 0 to 29 | 0 to 29 | pest or weed control at 140 g/ha [2, 9]: 0 to 29%; pest or weed control at 35 g/ha [2, 10]: 0 to 29%; pest or weed control at 70 g/ha [2, 10]: 0 to 29%; pest or weed control at 140 g/ha [2, 10]: 60 to 74%; pest or weed control at 35 g/ha [2, 11]: 0 to 29%; pest or weed control at 70 g/ha [2, 11]: 0 to 29%; pest or weed control at 140 g/ha [2, 11]: 0 to 29%; pest or weed control at 35 g/ha [2, 12]: 0 to 29%; pest or weed control at 70 g/ha [2, 12]: 0 to 29%; pest or weed control at 140 g/ha [2, 12]: 60 to 74%; pest or weed control at 35 g/ha [2, 13]: 0 to 29%; pest or weed control at 70 g/ha [2, 13]: 0 to 29%; pest or weed control at 140 g/ha [2, 13]: 30 to 44%; pest or weed control at 35 g/ha [2, 14]: 0 to 29%; pest or weed control at 70 g/ha [2, 14]: 0 to 29%; pest or weed control at 140 g/ha [2, 14]: 0 to 29% |
| Nc1cc(-c2cc3[nH]ccc3cc2F)nc(C(=O)O)c1Cl [Compound 1.26] | 0 to 29 | 0 to 29 | 0 to 29 | 75 to 84 | 85 to 94 | 95 to 100 | 85 to 94 | 95 to 100 | 95 to 100 | 0 to 29 | 30 to 44 | 30 to 44 | 0 to 29 | 30 to 44 | 45 to 59 | 0 to 29 | 0 to 29 | 0 to 29 | 0 to 29 | 0 to 29 | pest or weed control at 140 g/ha [2, 9]: 0 to 29%; pest or weed control at 35 g/ha [2, 10]: 0 to 29%; pest or weed control at 70 g/ha [2, 10]: 0 to 29%; pest or weed control at 140 g/ha [2, 10]: 0 to 29%; pest or weed control at 35 g/ha [2, 11]: 0 to 29%; pest or weed control at 70 g/ha [2, 11]: 0 to 29%; pest or weed control at 140 g/ha [2, 11]: 0 to 29%; pest or weed control at 35 g/ha [2, 12]: 0 to 29%; pest or weed control at 70 g/ha [2, 12]: 0 to 29%; pest or weed control at 140 g/ha [2, 12]: 0 to 29%; pest or weed control at 35 g/ha [2, 13]: 0 to 29%; pest or weed control at 70 g/ha [2, 13]: 0 to 29%; pest or weed control at 140 g/ha [2, 13]: 0 to 29%; pest or weed control at 35 g/ha [2, 14]: 0 to 29%; pest or weed control at 70 g/ha [2, 14]: 0 to 29%; pest or weed control at 140 g/ha [2, 14]: 0 to 29% |
| COC(=O)c1nc(-c2ccc3cc[nH]c3c2F)nc(N)c1OC [Compound 1.34] | 0 to 29 | 0 to 29 | 0 to 29 | 0 to 29 | 0 to 29 | 30 to 44 | 75 to 84 | 85 to 94 | 95 to 100 | 0 to 29 | 45 to 59 | 60 to 74 | 0 to 29 | 0 to 29 | 60 to 74 | 85 to 94 | 95 to 100 | 95 to 100 | 0 to 29 | 0 to 29 | pest or weed control at 140 g/ha [2, 9]: 0 to 29%; pest or weed control at 35 g/ha [2, 10]: 0 to 29%; pest or weed control at 70 g/ha [2, 10]: 0 to 29%; pest or weed control at 140 g/ha [2, 10]: 0 to 29%; pest or weed control at 35 g/ha [2, 11]: 0 to 29%; pest or weed control at 70 g/ha [2, 11]: 0 to 29%; pest or weed control at 140 g/ha [2, 11]: 0 to 29%; pest or weed control at 35 g/ha [2, 12]: 0 to 29%; pest or weed control at 70 g/ha [2, 12]: 0 to 29%; pest or weed control at 140 g/ha [2, 12]: 60 to 74%; pest or weed control at 35 g/ha [2, 13]: 0 to 29%; pest or weed control at 70 g/ha [2, 13]: 0 to 29%; pest or weed control at 140 g/ha [2, 13]: 30 to 44%; pest or weed control at 35 g/ha [2, 14]: 0 to 29%; pest or weed control at 70 g/ha [2, 14]: 0 to 29%; pest or weed control at 140 g/ha [2, 14]: 0 to 29% |
